# Results published in patent EP0028959A1, “5,8,13,13a-Tetrahydro-6H-dibenzo(a,g)quinolizine derivatives, process for their preparation and pharmaceutical compositions containing them” (U.R.P.H.A., priority 1979, dated 1981).
# Read-outs that look alike come from different tables or passages of the source.
# Assays:
# aorte isolée du rat = assay: Inhibition of phenylephrine-induced contraction of isolated rat aorta; assay type: cell-based; conditions: read-out: EFFET SUR L'AORTE DE RAT I50
# Source text: (§1) L'inhibition des réponses contractiles maximales provoquées par la Phényléphrine ([…]) a été étudiée sur l'aorte isolée du rat préparée suivant la technique décrite par VALETTE,G. et BA MUOI, N. (Ann. Pharm. franc. 1962, 20, 557-582) et sur le segment proximal et le segment distal de l'artère caudale suivant la technique-décrite par WORCEL, M. (J. Pharmacol. Exp. Therm. 1978, 207, 210-330). Dans tous les cas, les dérivés STB se sont comportés comme de puissants antagonistes non compétitifs de la Phényléphrine. Leurs concentrations inhibitrices 50% (ID50) sont indiquées dans le tableau 2. Comme c'est le cas pour d'autres vasodilatateurs (comme l'Hydralazine), l'- artère caudale est plus sensible que l'aorte à l'effet inhibiteur des dérivés étudiés.
# artère caudale proximale = assay: Inhibition of phenylephrine-induced contraction of isolated rat caudal artery, proximal segment; assay type: cell-based; conditions: read-out: EFFET SUR L'ARTERE CAUDALE DE RAT I50 SEGMENT PROXIMAL
# Source text: as §1
# artère caudale distale = assay: Inhibition of phenylephrine-induced contraction of isolated rat caudal artery, distal segment; assay type: cell-based; conditions: read-out: EFFET SUR L'ARTERE CAUDALE DE RAT I50 SEGMENT DISTAL
# Source text: as §1
# [1] = system: oreillette droite isolée de cobaye; assay: Frequency of spontaneously beating isolated guinea pig right atrium; assay type: cell-based; conditions: for Inhibition % du rythme de base / Inhibition % du rythme maximal en présence d'isoprotérénol: mean of 3 experiments ± erreur type; for effet sur la fréquence: result in words, comment on tableau 3
# Source text: (§2) Les effets sur le rythme et sur la concentration cardiaques ont été respectivement mis en évidence sur l'oreillette droite battant spontanément et sur l'oreillette gauche stimulée électriquement, suivant la technique décrite par GROSSMANN A., FURCHGOTT R. (J. Pharmacol. Exp. Ther. 1964, 143, 107-119).
# [2] = system: oreillette gauche isolée de cobaye; assay: Contractile force of electrically stimulated isolated guinea pig left atrium; assay type: cell-based; conditions: for effet sur la force contractile: result in words, comment on tableau 3
# Source text: as §2
# [3] = Acute toxicity, DL 50 in mice (Litchfield and Wilcoxon method); assay type: in vivo, souris; conditions: mouse, in vivo, DL 50 and its upper and lower limits for p = 0,05
# Description: (§3) La DL 50 a été déterminée chez la souris par la méthode de LITCHFIELD et WILCOXON (J. Pharmacol. 1949 96, 99-113). Les dérivés étudiés ont été administrés en solution aqueuse additionnée de 7% de diméthylformamide, gavage oesophagien de 0,4 ml/20g) à des souris mâles pesant de 20 à 25g.
# (§4) C'est pourquoi, il a été comparé au STB 0 par injection intrapéritonéale (même solution et même volume injectés par voie orale).
# [4] = system: rat anesthésié par l' "Inactine"; assay: Cardiac output (thermodilution), arterial pressure and peripheral vascular resistance in Inactine-anaesthetised rats; assay type: in vivo; design: Volume éjection systolique: unit not given here; conditions: Après: 45 minutes after 15 mg.kg^-1 i.p., n=7, mean ± erreur type
# Description: Les effets sur le débit cardiaque et la résistance vasculaire périphérique ont été mesurés chez le rat anesthésié par l' "Inactine" (70 mg.kg^-1), voie intrapéritonéale). Le débit a été mesuré par thermodilution suivant la technique décrite par HONDAS et al (Path. Biol. 1979, 17 1069-1078). La pression moyenne a été enregistrée à l'aide d'un cathéter placé dans l'artère fémorale du rat. Les mesures ont été faites avant et entre 45 et 60 minutes après l'administration intra-péritonéale des anti-hypertenseurs. Chaque chiffre expérimental représente la moyenne de trois mesures successives. Les résultats, donnés à titre d'exemple dans le tableau 1, ci-après,en ce qui concerne le STB 6, montrent que l'administration de l'anti-hypertenseur provoque une importante chute de pression artérielle imputable à une diminution marquée de la résistance vasculaire périphérique et sans variation significative du débit et du rythme cardiaques, ni du volume d'éjection systolique.
# souris = assay: Acute toxicity, DL 50 in mice (Litchfield and Wilcoxon method); assay type: in vivo; conditions: result in words, comment on tableau 4
# Description: as §3, §4
# [5] = Solubility in the dosing solution (aqueous solution with 7% dimethylformamide); assay type: physicochemical; conditions: reason why oral DL 50 could not be determined; result in words
# Description: as §3, §4
# [6] = system: effets hypertenseurs de l'adrénaline chez le chien; conditions: Raymond Hamet 1952, 1953; cited from earlier work
# muscle lisse = conditions: Raymond Hamet 1952, 1953; cited from earlier work
# patients hypertendus = conditions: Faquet, Lisle et Combaz 1954; cited from earlier work
# [7] = read-out: Variation % de la force contractile de base
# [8] = contraction by phényléphrine 1.10^-5M, mean of at least 3 experiments ± erreur type
# [9] = contraction by phényléphrine 1.10^-6M, mean of at least 3 experiments ± erreur type
# [10] = contraction by phényléphrine 5.10^-6M, mean of at least 3 experiments ± erreur type
# [11] = Concentration 5.10^-5 mole/l, stimulated at 2,5 Hz, mean of 3 experiments ± erreur type, read-out: Variation % de la force contractile de base
SMILES,IC50 (aorte isolée du rat),IC50 (artère caudale proximale),IC50 (artère caudale distale),effet sur la fréquence [1],effet sur la force contractile [2],"LD50 ([3]; po, per os, male mice 20 à 25g)",IC50 (aorte isolée du rat; [8]),IC50 (artère caudale proximale; [9]),IC50 (artère caudale distale; [10]),Inhibition % du rythme de base ([1]; Concentration 5.10^-5 mole/l),Inhibition % du rythme maximal en présence d'isoprotérénol ([1]; Concentration 5.10^-5 mole/l),"activation at 50 µM [2, 11]","toxicité aiguë, comparison (souris)",LD50 ([3]; ip.),further results
"COc1cc2c(cc1OC)CN1CCc3cc(OC(=O)Cc4ccccc4)ccc3C1C2 (stereo not drawn) [STB52, 3-phénacétyloxy-10,11-diméthoxy-5,8,13,13a tétrahydro-6H-dibenzo [a, g] quinolizine]",51 µM,2.1 µM,4.3 µM,subsistent de façon moins marquée,augmentent fortement la force contractile,550 mg/kg,,,,,,,,,"Inhibition % du rythme de base ([1]; Concentration 5.10^-6 mole/l): 14 ± 7%; Inhibition % du rythme maximal en présence d'isoprotérénol ([1]; Concentration 5.10^-6 mole/l): 17 ± 3%; activation at 5 µM [2, 7]: 90%"
"COc1cc2c(cc1OC)CN1CCc3cc(O)ccc3C1C2 (stereo not drawn) [STB6, 3-hydroxy-10,11-diméthoxy-5,8,13,13a-tétrahydro-6H-dibenzo [a, g] quinolizine]",,,,subsistent de façon moins marquée,augmentent fortement la force contractile,275 mg/kg,59 µM,1.1 µM,2.1 µM,8 ± 5%,"21,6 ± 1,2%",32%,le plus toxique,,"Volume éjection systolique ([4]; n.s., Avant: 0,71 ± 0,04): 0,78 ± 0,035; débit cardiaque (DC) ([4]; n.s., Avant: 237,7 ± 12,9): 293,9 ±18,7 n.s. ml, mn.kg^-1; Rythme ([4]; n.s., Avant: 386 ± 11): 374 ± 12 n.s. systoles/mn; pression artérielle moyenne (PA) ([4]; p≤ 0,01, Avant: 150,2 ± 3,9): ‡‡‡ 89,1 ± 3,3 mmHg; résistance vasculaire périphérique totale (RVPt) ([4]; p≤ 0,01, Avant: 728,9 ± 29,2): ‡‡‡ 412,2 ± 17,8 dynes.mn.cm^-5.kg^-1; Variation % de la force maximale en présence d'isoprotérénol ([2]; Concentration 5.10^-5 mole/l, stimulated at 2,5 Hz, mean of 3 experiments ± erreur type): 0%"
"O=C(Cc1ccccc1)Oc1ccc2c(c1)CCN1Cc3ccccc3CC21 (stereo not drawn) [STB69, 3-phénacétyloxy-5,8,13,13a-tétrahydro-6H-dibenzo-[a, g] quinolizine]",58 µM,1.5 µM,3.1 µM,pratiquement dépourvu d'action,pratiquement dépourvu d'action,> 650 mg/kg,,,,0%,"12,5 ± 2,7%",,le moins toxique,378 mg/kg,"activation at 50 µM [2, 7]: 12.6%; solubilité [5]: solubilité insuffisante"
"c1ccc2c(c1)CC1c3ccccc3CCN1C2 (stereo not drawn) [STB0, 5,8,13,13a-tétrahydro-6H-dibenzo [a,g] quinolizine, reference compound]",,,,déprime fortement,déprime fortement,464 mg/kg,13 µM,0.3 µM,1.3 µM,46 ± 5%,38 ± 6%,-47%,,262 mg/kg,effets hypertenseurs de l'adrénaline [6]: inverse les effets hypertenseurs de l'adrénaline; contraction du muscle lisse provoquée par l'ion K^+ (muscle lisse): inhibe la contraction du muscle lisse; action hypotensive (patients hypertendus): exerce une action hypotensive
"Oc1ccc2c(c1)CCN1Cc3ccccc3CC21 (stereo not drawn) [STB4, 3-hydroxy-5,8,13,13a-tétrahydro-6H-dibenzo [a, g] quinolizine]",,,,subsistent de façon moins marquée,ne diminuent pas la force contractile,464 mg/kg,26 µM,1 µM,1.9 µM,,,,,,"Inhibition % du rythme de base ([1]; Concentration 45.10^-5 mole/l): 13,8 ± 5,8%; Inhibition % du rythme maximal en présence d'isoprotérénol ([1]; Concentration 45.10^-5 mole/l): 28,7 ± 1,8%; Variation % de la force maximale en présence d'isoprotérénol ([2]; Concentration 45.10^-5 mole/l, stimulated at 2,5 Hz, mean of 3 experiments ± erreur type): 0%; activation at 450 µM ([2]; Concentration 45.10^-5 mole/l, stimulated at 2,5 Hz, mean of 3 experiments ± erreur type, read-out: Variation % de la force contractile de base): 0%"
